Measurements: ChEMBL document CHEMBL1129905, “Benzothiadiazine dioxide acyclonucleosides as lead compounds for the development of new agents against human cytomegalovirus and varicella-zoster virus infections” (Bioorg Med Chem Lett, 1997)
Converted amounts (≈) assume the structure as drawn.

Tests used:
HEL [1] = assay: Antiviral activity was measured against Varicella-Zoster virus (VZV) YS/R strain in human embryonic lung (HEL) cells; format: functional, cell-based
HeLa [2] = assay: (§1) Cytotoxic activity was measured in human […] cells (HeLa); format: functional
MT4 [3] = assay: The potential anti-HIV activity was evaluated against HIV-2 ROD strain in MT-4 cells; format: functional, cell-based; conditions: Homo sapiens
HeLa [4] = assay: as §1; format: functional; remark: listed apart in the source
MT4 [5] = assay: The potential anti-HIV activity was evaluated against HIV-1 IIIb strain in MT-4 cells; format: functional, cell-based; conditions: Homo sapiens
[6] = Cytotoxic activity was measured in human embryonic lung cells(HeLa); format: functional
HEL [7] = assay: Antiviral activity was measured against Varicella-Zoster virus (VZV) 07/1 strain in human embryonic lung (HEL) cells; format: functional, cell-based
HEL [8] = assay: Antiviral activity was measured against cytomegalovirus (CMV) AD-169 strain in human embryonic lung (HEL) cells; format: functional, cell-based
HEL [9] = assay: Antiviral activity was measured against cytomegalovirus (CMV) Davis strain in human embryonic lung (HEL) cells; format: functional, cell-based
[10] = test system: Human immunodeficiency virus 1; assay: Tested for its ability to inhibit replication of HIV-1 in MT-4 cells, activity expressed as IC50.; format: functional; conditions: Human immunodeficiency virus 1, MT4

`O=C(OCCOCN1c2ccccc2C(=O)N(Cc2ccccc2)S1(=O)=O)c1ccccc1` gave an IC50 (HEL [1]) greater than 12 µg/mL, a CC50 (HeLa [2]) of 24 µg/mL (≈ 51.4 µM) and an IC50 (MT4 [3]) greater than 86 µg/mL. The CC50 (HeLa [4]) was 24 µg/mL (≈ 51.4 µM), the IC50 (MT4 [5]) was 79.3 µg/mL (≈ 170 µM) and the CC50 [6] was greater than 125 µg/mL. It also gave an IC50 (HEL [7]) greater than 12 µg/mL, an IC50 (HEL [8]) of 12 µg/mL (≈ 25.7 µM) and an IC50 (HEL [9]) of 12 µg/mL (≈ 25.7 µM).
With `C#CCOCN1c2ccccc2C(=O)N(Cc2ccccc2)S1(=O)=O` the IC50 (HEL [1]) was greater than 5 µg/mL, the CC50 (HeLa [2]) was greater than 50 µg/mL and the IC50 (MT4 [3]) was greater than 8 µg/mL. For the same compound, the CC50 (HeLa [4]) was greater than 50 µg/mL, the IC50 (MT4 [5]) was greater than 8 µg/mL and the CC50 [6] was 23 µg/mL (≈ 64.5 µM). For the same compound, the IC50 (HEL [7]) was greater than 5 µg/mL, the IC50 (HEL [8]) was 8.4 µg/mL (≈ 23.6 µM) and the IC50 (HEL [9]) was 11 µg/mL (≈ 30.9 µM).
With `O=C1c2ccccc2N(Cc2ccccc2)S(=O)(=O)N1COCc1ccccc1` the IC50 (HEL [1]) was 3 µg/mL (≈ 7.34 µM), the CC50 (HeLa [2]) was greater than 50 µg/mL and the IC50 (MT4 [3]) was greater than 99 µg/mL. It also gave a CC50 (HeLa [4]) greater than 50 µg/mL, an IC50 (MT4 [5]) of 3.7 µg/mL (≈ 9.06 µM) and a CC50 [6] greater than 125 µg/mL. For the same compound, the IC50 (HEL [7]) was greater than 5 µg/mL, the IC50 [10] was 3.7 µg/mL (≈ 9.06 µM) and the IC50 (HEL [8]) was 3.6 µg/mL (≈ 8.81 µM). For the same compound, the IC50 (HEL [9]) was 3.6 µg/mL (≈ 8.81 µM).
For `O=C1c2ccccc2N(COCc2ccccc2)S(=O)(=O)N1Cc1ccccc1`, the IC50 (HEL [1]) was 13 µg/mL (≈ 31.8 µM), the CC50 (HeLa [2]) was greater than 50 µg/mL and the IC50 (MT4 [3]) was greater than 8 µg/mL. It also gave a CC50 (HeLa [4]) greater than 50 µg/mL, an IC50 (MT4 [5]) greater than 8 µg/mL and a CC50 [6] of 25 µg/mL (≈ 61.2 µM). The IC50 (HEL [7]) was 11 µg/mL (≈ 26.9 µM), the IC50 (HEL [8]) was 11 µg/mL (≈ 26.9 µM) and the IC50 (HEL [9]) was 12 µg/mL (≈ 29.4 µM).
With `Nc1nc2c(ncn2COCCO)c(=O)[nH]1` [ACYCLOVIR] the CC50 (HeLa [4]) was 200 µg/mL (≈ 888 µM).
Compound `Nc1nc2c(ncn2COC(CO)CO)c(=O)[nH]1` [GANCICLOVIR] has a CC50 (HeLa [2]) greater than 50 µg/mL, an IC50 (HEL [8]) of 1.2 µg/mL (≈ 4.7 µM) and an IC50 (HEL [9]) of 1.3 µg/mL (≈ 5.09 µM).
